Values quoted from earlier work as cited in paper PMC8869242 (Biomedicines, 2022).
Where two headings read alike, the source gives them in different places.

Assays:
[1] = system: Ehrlich ascites carcinoma (EAC); settings: cited from earlier work; for mice died during treatment: two injections per week for 2 weeks
[2] = system: endothelial cells (HUVEC); parameters: method as in PMID 34339726; settings: cited from earlier work
CAM = system: CAM; parameters: method as in PMID 34339726; settings: concentration of 5 mg/mL; cited from earlier work

Row | SMILES | tumor volume reduction ([1]; i.p. 2 mg/kg, two injections per week for 2 weeks (cumulative 8 mg/kg)) | mice died during treatment ([1]; i.p. 2 mg/kg) | concentration range showing inhibition of migration of endothelial cells (HUVEC) [2] | angiogenesis in CAM assay (CAM) | tumor volume reduction ([1]; 3 mg/kg, two injections per week for 2 weeks (cumulative 12 mg/kg)) | mice died during treatment ([1]; 3 mg/kg)
1 | O.O.O.O.O=C1[N-]S(=O)(=O)c2ccccc21.O=C1c2ccccc2S(=O)(=O)[N]1[Pd+].c1ccc(-c2cccc(-c3ccccn3)n2)nc1 [[Pd(sac)(terpy)](sac)·4H2O] | 67.5% | 1 of 10 | – | – | – | –
2 | O.O.O=C1[N-]S(=O)(=O)c2ccccc21.[Cl][Pd+].c1ccc(-c2cccc(-c3ccccn3)n2)nc1 [[PdCl(terpy)](sac)·2H2O] | – | – | 12.5 to 50 µM | inhibition of angiogenesis | 69.8% | 1 of 9
